The values that follow come from article PMC10357585 (Biochemistry, 2023).

The structures appear in SMILES notation. Marks after values point to notes of the source that are not given here.

The subject of one experiment is TcA (HGPRT). As to conditions: variable 6-oxopurine, PRPP 1 mM, ref Glockzin et al., 2022.[43]; cited from earlier work.
The target in experiment [1] is T1, TcHGXPRT (Trypanosoma cruzi, UniProt Q4DRC3).
T1 sequence (Q4DRC3 1-231): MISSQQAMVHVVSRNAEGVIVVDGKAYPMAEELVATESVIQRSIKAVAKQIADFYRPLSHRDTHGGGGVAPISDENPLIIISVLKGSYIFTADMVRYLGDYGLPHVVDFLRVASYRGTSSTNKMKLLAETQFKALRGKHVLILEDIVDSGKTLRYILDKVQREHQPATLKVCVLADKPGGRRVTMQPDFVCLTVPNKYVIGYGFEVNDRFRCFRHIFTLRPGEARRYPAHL
Briefly: Initial rate studies of TcHGXPRT, GMP biosynthesis. Format: biochemical. The conditions noted are these: for kcat: GMP biosynthesis; for Ki: Ki,PRPP.

Another experiment relates to TcHGPRT. As to conditions: variable substrate PRPP (20–215 μM); ref Wenck et al., 2004.[30]; cited from earlier work.
A further experiment has as its system PfHGXPRT. As to conditions: read-out: apparent Km, Xan as substrate; cited from earlier work.
The target in experiment [2] is T1, TcHGXPRT. The experiment is described as follows: Dead-end inhibition studies of TcHGXPRT. Type of experiment: biochemical.
Experiment [3] has as its target T1, TcHGXPRT. The experiment is described as follows: Product inhibition studies of TcHGXPRT. Format: biochemical. As to conditions: PRPP 1 mM.
The mark [4] stands for this setting: variable substrate PRPP (1–78 μM) at fixed Gua levels.
Where [5] appears, read: variable substrate Guanine (10–300 μM) at fixed PRPP levels.

Turning to `O=c1[nH]cnc2nc[nH]c12` [Hx, hypoxanthine], in the experiment on TcA (HGPRT), the Km was 13 ± 4 µM and the kcat is given as 32 ± 1 ^b s^–1.

For the compound `O=P(O)(O)OC[C@H]1O[C@H](OP(=O)(O)OP(=O)(O)O)[C@H](O)[C@@H]1O` [PRPP, 5-phospho-D-ribose 1-pyrophosphate], at TcHGXPRT [1] (setting [4]), the kcat worked out at 0.44 ± 0.02 s^–1 and the Ki stood at 0.6 ± 0.3 µM. This compound also came in with a Ki at TcHGXPRT [1] (setting [5]) of 0.7 ± 0.2 µM. For the same compound, in the experiment on TcHGPRT, the KPRPP is listed as 32 ± 5 ^d μM and the kcat/KPRPP was 1010 ^d × 10^3 M^–1 s^–1.

Turning to `O=c1[nH]c(=O)c2nc[nH]c2[nH]1` [Xan, xanthine], in the experiment with PfHGXPRT, the Km is 189 to 420 µM. Further, in the experiment with TcA (HGPRT), the Michaelis-Menten constant (Km) was 160 ± 40 µM and the kcat was 0.005 ± 0.0006 ^b s^–1.

For `O=c1[nH]c(=O)c2[nH]ccc2[nH]1` [9-deazaxanthine], the Ki at TcHGXPRT [2] amounted to 70 ± 10 µM. The Inhibition pattern entry at TcHGXPRT [2] (9-deazaxanthine (0–250 μM) vs. variable Xan (3–100 μM), PRPP 1 mM) is “C ^e”; at TcHGXPRT [2] (9-deazaxanthine (0–600 μM) vs. variable PRPP (23–750 μM), Xan 120 μM), “UC ^e”. The compound also came in with a Kii at TcHGXPRT [2] (9-deazaxanthine vs. variable PRPP, Xan 120 μM, 37 °C, pH 8.3, 12 mM MgCl2) of 490 ± 40 µM.

For the compound `Nc1nc2nc[nH]c2c(=O)[nH]1` [Gua, guanine], at TcHGXPRT [1] (setting [5]), the kcat was determined as 0.46 ± 0.01 s^–1. Also, in the experiment on TcA (HGPRT), the Km is 19 ± 1 µM and the kcat is on record as 32 ± 1 ^b s^–1. In addition, in the experiment on TcHGPRT, the KGua is 12 ± 1 ^d μM and the kcat/KGua is 2650 ^d × 10^3 M^–1 s^–1.

As for `O=P(O)(O)OP(=O)(O)O` [PPi, pyrophosphate], the Inhibition pattern entry on TcHGXPRT [3] (PPi (0–200 μM) vs. variable Xan (2.5–150 μM)) was “NC ^e”. Moreover, the Kii on TcHGXPRT [3] (PPi vs. variable Xan) was 1400 ± 400 µM. Also, at TcHGXPRT [3] (read-out: Kis, PPi vs. variable Xan), the Ki came out at 190 ± 40 µM.
